Measured values published in article PMC5104426, “Screening a Phage Display Library for Two Novel OmpU-Binding Peptides with Adhesion Antagonistic Activity against Vibrio mimicus” (PLoS ONE, 2016).
“And” between values parts separate entries of the source, which are not always exact repeats. Equal values may be shown once.

How the values were obtained:
[1] = tested on: rOmpU fusion protein adhesion to EPC cells; assay: Fluorescence-based adhesion assay: rOmpU protein adhesion to EPC cells; assay type: cell-based, Vibrio mimicus; settings: 500 μg/mL peptide mixed with equal volume of 500 μg/mL rOmpU, 1 h 28°C, then 1 h on fixed EPC cells; anti-OmpU/FITC immunofluorescence; triplicate
Description: Synthetic OmpU-binding peptides were measure for their ability to antagonize OmpU protein adhesion to EPC cells by fluorescence-based adhesion assay. Briefly, EPC cells (1 × 10^6 cells/mL) were seeded in 24-well cell plate containing coverslip (Corning, NY, USA) and cultured to 80% confluence. The cells were gently washed 3 times with PBS and fixed with 4% paraformaldehyde at room temperature for 15 min. After 3 washes with PBS, cells were permeabilized with 0.5% Triton X-100 (500 μL/well) for 15 min. The cells were then washed 3 times with PBS and blocked with 2% BSA for 30 min. Subsequently, 500 μg/mL of each OmpU-binding peptide or irrelevant control peptide (used as negative control) solution were respectively mixed with an equal volume of 500 μg/mL rOmpU fusion protein, and the mixture was incubated for 1 h at 28°C and added to each well. The plates were incubated for 1 h at 28°C. After 3 washes, purified rabbit anti-OmpU antibody (prepared in our previous studies) at a dilution of 1:200 in PBS was added to each well and incubated for 1 h at 28°C, followed by 3 washes in PBS. A 1:100 dilution of FITC (fluorescein isothiocyanate)-labeled goat anti-rabbit IgG (Jackson ImmunoResearch Laboratories, Inc., USA) was added to each well and incubated in the dark for 1 h. After 3 washes in PBS, 4,6-Diamidino-2-phenylindole dihydrochloride (DAPI; Ziyi Reagent Co., Shanghai, China) was used to stain the nucleus, and the coverslips were observed under a fluorescence microscope. Each experiment was performed in triplicate, each sample being tested in three wells.

[2] = tested on: V. mimicus 04–14 isolate adhesion to EPC cells; assay: Peptide adhesion inhibition test: V. mimicus adhesion to EPC cells; assay type: cell-based, Vibrio mimicus; settings: 500 μg/mL peptide mixed with equal volume of V. mimicus 04–14 (2 × 10^7 CFU/mL), 1 h 28°C, then 1 h on EPC cells, crystal violet, 30 cells counted, mean ± SD, triplicate
Description: When EPC cells grown in 24-well plate containing coverslips formed a confluent monolayer, the medium was changed to RPMI-1640 medium without serum and antibiotics for 2 h. Subsequently, 500 μg/mL of each OmpU-binding peptide or unrelated control peptide solution were respectively mixed with an equal volume of V. mimicus isolate 04–14 suspension (2 × 10^7 CFU/mL) and incubated for 1 h at 28°C. The mixture was added to each well, and then the plates were incubated for 1 h at 28°C. After 3 times washes, EPC cells were fixed with cooled methanol for 10 min, stained with crystal violet and examined under a light microscope at a magnification of ×1,000. Thirty cells were randomly selected to count the number of adhering bacterial per slide. Each experiment was performed in triplicate, with each sample being repeated in 3 cell wells.

[3] = tested on: grass carps; assay: Acute toxicity to grass carps; assay type: in vivo, Ctenopharyngodon idella; settings: 100 mg/kg i.p., six fish per group; for survival in the 7-day study period: 7 days
Description: (§1) Healthy grass carps weighting 50–52 g were purchased from a commercial fish farm in Anhui province of China, and then were maintained in a flow-through water system at a temperature of 25 ± 1°C and fed commercial pellets on a daily basis. After 14 days when grass carps were confirmed to be healthy, the water temperature was increased to 28 ± 1°C slowly, and the experiment began.
For acute toxicity detection, synthetic P1, P2 and unrelated control peptide was dissolved in sterile deionized water, respectively, and given to grass carps by intraperitoneal (i.p.) injection at a dose of 100 mg/kg, six fish per group. The number of fish surviving in each group was monitored for up to a period of 7 days after injection. At the end of the experiments, all surviving fish were euthanized in a solution of 200 mg/L of MS-222 followed by a blow to the head.

[4] = tested on: V. mimicus 04–14 isolate; assay: Protective effects on grass carps challenged with V. mimicus; assay type: in vivo, Vibrio mimicus; settings: for Mortality rate / Survival rate: n = 10, 7 days; for No. of dead fish post challenge, 2d: n = 10, day 2; for No. of dead fish post challenge, 3d: n = 10, day 3; for No. of dead fish post challenge, 4d: n = 10, day 4; for No. of dead fish post challenge, 5d: n = 10, day 5; for No. of dead fish post challenge, 6d: n = 10, day 6; for No. of dead fish post challenge, 7d: n = 10, day 7; for No. of dead fish: n = 10, total over 7 days; for No. of dead fish post challenge, 1d: n = 10, day 1
Description: as §1
The experimental grass carps were randomly divided into 9 groups (named A-I group, n = 10 in each group). Groups A-C were injected intraperitoneally with P1 at a dose of 10 mg/kg/d, 20 mg/kg/d and 30 mg/kg/d, respectively; Groups D-F were given the same dosages of P2, respectively; Group G was given with 30 mg/kg/d of unrelated control peptide. After 3 days of continuous peptides injection, each fish in groups A-G was challenged intraperitoneally with 200 μL PBS containing 6 × 10^6 cells of V.mimicus 04–14 isolate (equal to the minimal lethal dose determined by preliminary test), respectively. Group H (infection control group) was only inoculated with 04–14 isolate at the minimal lethal dose; Group I (negative control group) was only inoculated with 0.65% sterile saline. Survival of the fish was monitored every 12 h for 7 days post-challenge. At the end of the 7 day observation period, all surviving fish were euthanized in a solution of 200 mg/L of MS-222 followed by a blow to the head.
The survival experiment was performed in accordance with the practices reported in recent studies on antibacterial efficacy of peptides in vivo, protective efficacy of vaccine and bacterial virulence. Death was used as an endpoint in these studies (with no indication of use of humane euthanasia). In animal toxicity and efficacy assays of the adhesion antagonistic peptides, we used death as the endpoint as early, reliable and unbiased biomarkers that can be used as indicators of disease severity are lacking. There is difficulty in reliably differentiating fish that will die from those which will recover, despite showing clinical signs precluding use of humane euthanasia. In addition, interpretation of clinical signs can itself be subjective in the absence of quantifiable indicators of disease severity. For these reasons, the ethical committee of Anhui Agricultural University has assessed the possibility of deaths in the animal toxicity and efficacy assays and also allowed probably unavoidable animal deaths.

[5] = 10 mg/kg/d i.p. for 3 days before challenge
[6] = 10 mg/kg/d i.p. for 3 days before i.p. challenge with 6 × 10^6 cells
[7] = 20 mg/kg/d i.p. for 3 days before challenge
[8] = 30 mg/kg/d i.p. for 3 days before challenge

Sequence	green fluorescence on the surface of EPC cells (surface-retained rOmpU) [1]	average number of adhesion around each cell [2]	immediate adverse events (enervation or feed intake reduction) [3]	survival in the 7-day study period [3]	Mortality rate [4, 5] [%]	Survival rate [4, 5] [%]	No. of dead fish post challenge, 2d [4, 5]	No. of dead fish post challenge, 3d [4, 5]	No. of dead fish post challenge, 4d [4, 5]	No. of dead fish post challenge, 5d [4, 5]	No. of dead fish post challenge, 6d [4, 5]	No. of dead fish post challenge, 7d [4, 5]	No. of dead fish [4, 5]	No. of dead fish post challenge, 1d [4, 6]	Mortality rate [4, 7] [%]	Survival rate [4, 7] [%]	No. of dead fish post challenge, 1d [4, 7]	No. of dead fish post challenge, 2d [4, 7]	No. of dead fish post challenge, 3d [4, 7]	No. of dead fish post challenge, 4d [4, 7]	other results
SCTSPHCFMWLP [P2, adhesion antagonistic peptide]	little or no green fluorescence	3.4 ± 0.8	no immediate adverse events	all the treated fish survived	80	20	4	3	1	0	0	0	8	0	60	40	0	2	3	1	No. of dead fish post challenge, 5d [4, 7]: 0; No. of dead fish post challenge, 6d [4, 7]: 0; No. of dead fish post challenge, 7d [4, 7]: 0; No. of dead fish [4, 7]: 6; Mortality rate [4, 8]: 40%; Survival rate [4, 8]: 60%; No. of dead fish post challenge, 1d [4, 8]: 0; No. of dead fish post challenge, 2d [4, 8]: 2; No. of dead fish post challenge, 3d [4, 8]: 2; No. of dead fish post challenge, 4d [4, 8]: 0; No. of dead fish post challenge, 5d [4, 8]: 0; No. of dead fish post challenge, 6d [4, 8]: 0; No. of dead fish post challenge, 7d [4, 8]: 0; No. of dead fish [4, 8]: 4
TWTCSDVICTAR [P1, adhesion antagonistic peptide]	little or no green fluorescence	5.1 ± 0.7 and 5.1 ± 0.6	no immediate adverse events	all the treated fish survived	90	10	5	2	2	0	0	0	9	0	80	20	0	4	2	2	No. of dead fish post challenge, 5d [4, 7]: 0; No. of dead fish post challenge, 6d [4, 7]: 0; No. of dead fish post challenge, 7d [4, 7]: 0; No. of dead fish [4, 7]: 8; Mortality rate [4, 8]: 60%; Survival rate [4, 8]: 40%; No. of dead fish post challenge, 1d [4, 8]: 0; No. of dead fish post challenge, 2d [4, 8]: 2; No. of dead fish post challenge, 3d [4, 8]: 3; No. of dead fish post challenge, 4d [4, 8]: 1; No. of dead fish post challenge, 5d [4, 8]: 0; No. of dead fish post challenge, 6d [4, 8]: 0; No. of dead fish post challenge, 7d [4, 8]: 0; No. of dead fish [4, 8]: 6
